Test results as given in patent publication US4922021A, “New alkylene diamine derivatives” (BASF Aktiensellschaft, priority 1981, dated 1990).

Tests used:
[1] = tested on: aconitin-induced arrhythmia; details: mouse, in vivo; for Delay in the appearance time of arrhythmia: po, 100 mg/kg
[2] = tested on: aconitin-induced arrhythmia; assay: animal or person; details: Mus musculus, ip, read-out: Delay in time of appearance of arrhythmia
[3] = tested on: fibrillation threshold of the heart; assay: Determination of the fibrillation threshold in anaesthetized cats; assay type: in vivo; details: i.v.
From the text: The chests of the cats were opened under chloralose-urethane anaesthesia a bipolar stimulating electrode was fixed onto the heart, and the heart was stimulated electrically with a frequency of 20 Hz, under continuously increasing current strength, until a fibrillo-flattern could be observed. This current strength was regarded as the fibrillation threshold of the animal.

[4] = tested on: barium chloride-induced arrhythmia; assay: Barium chloride-induced arrhythmia in awake rabbits; assay type: in vivo; details: i.v., 2 mg/kg; arrhythmia suspended for at least 3 minutes
Method: The compounds to be tested were administered intravenously to the animals 3 minutes after treating them with barium chloride, and the effect was recorded. It was regarded as a positive protecting effect when the compound suspended the arrhythmic condition for at least 3 minutes.

[5] = tested on: ouabain-induced arrhythmia; assay: Ouabain-induced arrhythmia in anaesthetized dogs; assay type: in vivo; details: i.v.; for Complete suspension, number of cases: protection > 30 min = complete
Method: Anaesthetized dogs of both sexes were treated intravenously with an infusion of 60 /ug/kg of ouabain to provoke arrhythmia, and the arrhythmic state was maintained with an ouabain dose 60 times less than the initial. In this way a ventricular tachycardia or tachyarrhythmia lasting for more than 180 minutes was provoked. The compounds were tested during this period. The period of recovered normal sinus rhythm was recorded, and when a compound exerted protective effect for more than 30 minutes, this fact was regarded as complete protection. The tests were performed essentially according to the method of Piascik et al. [Can.
Examination of the anti-arrhythmic effect in dogs anaesthetized with a 30
of pentobarbital sodium and treated with ouabain

in vivo = details: mouse, ip
right ventricle = assay: Electrophysiological tests on isolated rabbit heart, right ventricle; set-up: species or system rabbits; details: 2 mg/l, average
Method: (§1) Heart of rabbits of both sexes, weighing 1-2 kg, were removed, the right and left auricles and a segment of the right ventricle were prepared and placed into a vessel filled with nutrient solution. Bipolar platinum electrodes (a stimulating electrode and a lead electrode) were placed onto the organ strips, and the electric stimulus threshold and the speed of impulse condution were measured. The effective refractory period determined on the basis of the maximum driving frequency.

[6] = tested on: myocardial contractile force, arterial blood pressure and pulse rate; assay: Inotropic effects (myocardial contractile force) in anaesthetized cats; assay type: in vivo; details: i.v.; for Contractility, change: basal 100
Method: Cats were anaesthetized with chloralose-urethane, a cannula was lead into the femoral artery, and the cannula was connected, through a Statham P 23 Db pressure sensor, to a Hellige recorder, where the arterial blood pressure and the pulse rate were recorded. The animals were respirated artifically, their chests were opened, and a strain gage was sutured on the left heart. The strain gage was connected to the Hellige recorder, and the variations in cardiac contractile force were recorded. The test compounds were administered to the animals intravenously through a cannula.

[7] = tested on: systemic and pulmonary circulation; assay: Effects on the systemic and pulmonary circulation of awake cats; assay type: in vivo; details: i.v., 1.0 mg/kg
From the text: Cats were anaesthetized with pentobarbital, and cannulas were placed into the carotis artery and, through the jugular vein, into the pulmonary artery. An additional cannula was placed into the jugular vein for the administration of the test compound. The cannulas were filled up with heparin in order to avoid blood clotting. Thereafter the wounds were sutured, and the cannulas were led below a bandage placed around the neck of the animal. 3 days after this operation the systemic arterial blood pressure, the pulmonary arterial pressure and the pulse rate of the awake animals were measured with a Hellige recorder, connected to the cannulas through a Statham P 23 Db type pressure transducer.

left auricle = assay: Electrophysiological tests on isolated rabbit heart, left auricle; set-up: species or system rabbits; details: 2 mg/l, average
Method: as §1

[8] = J. Med. Chem. 6, 705 (1963); cited from earlier work

With CCC(N)CNc1c(C)cccc1C (centres unmarked) [1-(2,6-dimethylphenyl-amino)-2-amino-butane] the “Delay in the appearance time of arrhythmia” value (“Delay in the appearance time” below) [1] was “+33.0%”, the change in vivo at 10 mg/kg [2] was 3% and the change in vivo at 25 mg/kg [2] was 40.8%. It also gave a change in vivo at 50 mg/kg [2] of 104% and a change in vivo at 75 mg/kg [2] of 149%.

In the case of CCN(CC)CC(=O)Nc1c(C)cccc1C.Cl [N-(diethylamino-acetyl)-2,6-dimethylaniline hydrochloride, reference compound], the “Effect on the fibrillation threshold” value ([3]; 0.5 mg/kg) is reported as 0%, the “Effect on the fibrillation threshold” value ([3]; 1.0 mg/kg) is reported as “+2.0%” and the “Effect on the fibrillation threshold” value ([3]; 2.0 mg/kg) is reported as “+17.7%”. For the same compound, the “Effect on the fibrillation threshold” value ([3]; 4.0 mg/kg) was “+39.1%”, the “Protecting effect, number of animals” value [4] was 2/10 and the “Delay in the appearance time” value [1] was “+38.0%”. The change in vivo at 5 mg/kg [2] was 1%, the change in vivo at 10 mg/kg [2] was 16.2% and the change in vivo at 25 mg/kg [2] was 33.7%. The change in vivo at 40 mg/kg [2] was 70.1%, the “Average time of partial suspension” value ([5]; 0.5 mg/kg) was 0.5 min and the “Complete suspension, number of cases” value ([5]; 0.5 mg/kg) was 0/15. For the same compound, the “Average time of partial suspension” value ([5]; 1.0 mg/kg) was 1.6 min, the “Complete suspension, number of cases” value ([5]; 1.0 mg/kg) was 0/15 and the “Average time of partial suspension” value ([5]; 2.0 mg/kg) was 2.5 min. For the same compound, the “Complete suspension, number of cases” value ([5]; 2.0 mg/kg) was 1/15, the “Average time of partial suspension” value ([5]; 4.0 mg/kg) was 2.5 min and the “Complete suspension, number of cases” value ([5]; 4.0 mg/kg) was 3/14. The “Average time of partial suspension” value ([5]; 8.0 mg/kg) was 7.5 min and the “Complete suspension, number of cases” value ([5]; 8.0 mg/kg) was 2/11.

In the case of Cc1cccc(C)c1NCC(C)N(C)C (centres unmarked) [1-(2,6-dimethylphenyl-amino)-2-dimethylamino-propane], the LD50 (in vivo) is reported as 114 mg/kg, the “Effect on the fibrillation threshold” value ([3]; 0.5 mg/kg) is reported as “+8.6%” and the “Effect on the fibrillation threshold” value ([3]; 1.0 mg/kg) is reported as “+12.2%”. For the same compound, the “Effect on the fibrillation threshold” value ([3]; 2.0 mg/kg) was “+27.0%”, the “Effect on the fibrillation threshold” value ([3]; 4.0 mg/kg) was “+53.9%” and the “Change of the conduction time” value (right ventricle) was “+12%”. The “Change of the effective refractory period” value (right ventricle) was “+18%”, the “Change of the electric stimulus threshold” value (right ventricle) was “+6%” and the “Protecting effect, number of animals” value [4] was 5/10. For the same compound, the “column headed by drawing 10 (apparently LD50/ED50)” value ([1]; ip) was 5.7, the “Delay in the appearance time” value [1] was “+74.0%” and the change in vivo at 10 mg/kg [2] was 17.2%. The change in vivo at 25 mg/kg [2] was 72.7%, the change in vivo at 50 mg/kg [2] was 138% and the change in vivo at 75 mg/kg [2] was 212%. For the same compound, the “Arterial blood pressure, change” value ([6]; 0.5 mg/kg) was -7 mmHg, the “Pulse/minute, change” value ([6]; 0.5 mg/kg) was “+10 /minute” and the “Contractility, change” value ([6]; 0.5 mg/kg) was -5%. The “Arterial blood pressure, change” value ([6]; 1.0 mg/kg) was -10 mmHg, the “Pulse/minute, change” value ([6]; 1.0 mg/kg) was “+15 /minute” and the “Arterial blood pressure, change” value ([6]; 2.0 mg/kg) was -30 mmHg. For the same compound, the “Pulse/minute, change” value ([6]; 2.0 mg/kg) was -10 min⁻¹, the “Arterial blood pressure, change” value ([6]; 5.0 mg/kg) was -40 mmHg and the “Pulse/minute, change” value ([6]; 5.0 mg/kg) was -25 min⁻¹. For the same compound, the “Contractility, change” value ([6]; 5.0 mg/kg) was -33%, the “Average time of partial suspension” value ([5]; 0.5 mg/kg) was 0.4 min and the “Complete suspension, number of cases” value ([5]; 0.5 mg/kg) was 0/15. For the same compound, the “Average time of partial suspension” value ([5]; 1.0 mg/kg) was 1.5 min, the “Complete suspension, number of cases” value ([5]; 1.0 mg/kg) was 0/15 and the “Average time of partial suspension” value ([5]; 2.0 mg/kg) was 5.7 min. For the same compound, the “Complete suspension, number of cases” value ([5]; 2.0 mg/kg) was 4/15, the “Average time of partial suspension” value ([5]; 4.0 mg/kg) was 6.4 min and the “Complete suspension, number of cases” value ([5]; 4.0 mg/kg) was 3/12. The “Average time of partial suspension” value ([5]; 8.0 mg/kg) was 10.0 min, the “Complete suspension, number of cases” value ([5]; 8.0 mg/kg) was 5/9 and the “Pulmonary arterial mean pressure, change” value ([7]; basal 13) was “+2.8 mmHg”. The “Arterial blood pressure, change” value ([7]; basal 102) was “+2 mmHg”, the “Pulse/minute, change” value ([7]; basal 190-200) was -9 min⁻¹ and the “Change of the conduction time” value (left auricle) was “+12%”. For the same compound, the “Change of the effective refractory period” value (left auricle) was “+20%” and the “Change of the electric stimulus threshold” value (left auricle) was “+32%”.

For Cc1cccc(C)c1NCC(C)N (centres unmarked) [1-(2,6-dimethylphenyl-amino)-2-amino-propane], the LD50 (in vivo) was 135 mg/kg, the “Delay in the appearance time” value [1] was “+27.0%” and the change in vivo at 25 mg/kg [2] was 17%. It also gave a change in vivo at 50 mg/kg [2] of 87.3% and a change in vivo at 100 mg/kg [2] of 124%.

In the case of Cc1cccc(C)c1NCCN [N-(2,6-dimethylphenyl)-ethylenediamine], the hypotensive effects [8] is listed as “hypotensive effects”.

In the case of Cc1cccc(C)c1NC(C)CN.Cl.Cl (centres unmarked) [1-Amino-2-(2,6-dimethylphenyl-amino)-propane dihydrochloride], the LD50 (in vivo) is reported as 155 mg/kg, the “Delay in the appearance time” value [1] is reported as “+41.0%” and the change in vivo at 25 mg/kg [2] is reported as 16.6%. It also gave a change in vivo at 50 mg/kg [2] of 60% and a change in vivo at 100 mg/kg [2] of 127%.
